These results are taken from patent US8940900B2, “2,2,2-tri-substituted acetamide derivatives as glucokinase activators, their process and pharmaceutical application” (Advinus Therapeutics Private Limited, priority 2007, dated 2015).

The subject of data set [1] is primary rat hepatocytes. In words: Glycogen synthesis in primary rat hepatocytes. It counts as cell-based. The following applies: 3 hours, over DMSO control. As to the method: Primary hepatocytes are collected from male Wistar rats, and tested for viability by trypan blue exclusion. […] The medium is then replaced with fresh MEM (serum-free) containing 2 μCi/ml of D-[U^14C]-Glucose along with 10 μM of the compound in a final DMSO concentration of 0.1%. The final glucose concentration is brought to 10 mM by the addition of D-Glucose (MEM already contains 5 mM glucose). The cells are incubated for 3 hours at 37° C. […] After another round of centrifugation, the supernatant is removed, and the pellet containing the precipitated glycogen is dried overnight. De novo synthesized glycogen is estimated in a scintillation counter (MicroBeta Trilux, Perkin Elmer), and expressed as fold increase over DMSO control.
The protocol for isolation of primary rat hepatocytes is based on the method described in “Methods in Enzymology, Vol. III. pp 34-50. Ed. by S. P. Colowick and N. O. Kaplan.
Compounds described in formula (I), in concentration ranges from 1.0 nM to 500 μM, are tested in glycogen synthesis assay described above.

For data set [2], the target named is T1, purified human recombinant GK (Homo sapiens, UniProt P35557).
T1 sequence (P35557 1-465): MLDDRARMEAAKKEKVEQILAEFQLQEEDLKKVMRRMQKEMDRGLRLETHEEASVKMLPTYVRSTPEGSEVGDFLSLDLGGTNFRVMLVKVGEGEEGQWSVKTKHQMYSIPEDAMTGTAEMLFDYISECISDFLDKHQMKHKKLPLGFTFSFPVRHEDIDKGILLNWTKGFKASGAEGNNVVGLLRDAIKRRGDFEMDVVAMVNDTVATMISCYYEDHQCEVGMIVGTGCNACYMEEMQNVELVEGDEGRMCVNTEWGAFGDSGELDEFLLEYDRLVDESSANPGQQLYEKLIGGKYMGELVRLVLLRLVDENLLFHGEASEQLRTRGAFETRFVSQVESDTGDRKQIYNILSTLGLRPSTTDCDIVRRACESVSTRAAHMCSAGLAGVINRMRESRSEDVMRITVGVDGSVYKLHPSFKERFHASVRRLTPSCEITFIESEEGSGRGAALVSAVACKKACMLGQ
Description: Glucokinase activity, coupled enzymatic assay (NADH absorbance at 340 nm). In kind it is biochemical. As to conditions: 5 mM glucose; read-out: EC50 values for GK activation at 5 mM Glucose conc. The text has this:
(§1) Glucokinase (GK) activity, in vitro, has been measured using a coupled enzymatic assay (Ref: Hariharan et al (1997) Diabetes 46: 11-16). GK catalyzes the first step, the conversion of glucose to glucose-6-phosphate (G6P) in the presence of ATP. G6P in turn is converted by glucose-6-phosphate dehydrogenase (G6PD) to 6-phosphogluconate, a process that requires NAD, resulting in NADH formation. Since the GK-catalyzed step is the rate-limiting step of this coupled enzymatic process, the rate of accumulation of 6-phosphogluconate and NADH is directly proportional to the rate of glucose phosphorylation by GK. The rate of the GK-catalyzed reaction can therefore be measured by monitoring the increase in NADH absorbance at 340 nm.
(§2) The assay is carried out according to the protocol outlined in Hariharan et al (1997), Diabetes 46: 11-16. Briefly, the test compounds are incubated in a reaction mix containing 25 mM HEPES (pH 7.2), 10 mM MgCl2, 100 mM KCl, 5 mM ATP, 2 mM DTT, 0.5 mM NAD, 1 U/ml Leuconostoc mesenteroides G6PD, 0.3 U/ml of purified human recombinant GK, and different concentrations of glucose. Enzymatic activity is calculated from the initial reaction velocity, measured from the change in NADH absorbance as a function of time.
Compounds described in formula (I), in concentration ranges from 1.0 nM to 500 μM, are tested in purified human recombinant Glucokinase assay described above.
A compound is considered to be a glucokinase activator if it, in its testable range of concentrations, yields a higher rate of glucose phosphorylation than in its absence.

In data set [3] the target is T1, purified human recombinant GK. Description: Characterization of partial glucokinase activators: dose dependent effect on % ΔS0.5 of glucokinase for glucose. In kind it is biochemical. The following applies: Table 4; partial glucokinase activators. As for the experimental part:
The ΔS0.5 is then normalized to a percent scale, where the S0.5 in the vehicle control is set to 0% and 0 mM glucose is set to 100%. […] The EC50 of % change in S0.5 is obtained from the sigmoidal fit of the data.
The change in the S0.5 of glucokinase (ΔS0.5) for glucose in the presence of Examples A11, O15 and J1 is calculated by subtracting the S0.5 at each concentration of each Example from the S0.5 in the vehicle control. The ΔS0.5 is then normalized to a percent scale, where the S0.5 in the vehicle control is set to 0% and 0 mM glucose is set to 100%. The % ΔS0.5 is then plotted against the log of the concentration of each Example.
FIG. 2B illustrates such a derived plot, taking S0.5 data from FIG. 2A.
as §1, §2
Compounds of interest are tested in GK assay to monitor dose dependent effect on Glucokinase activation (in kinetic mode), as described above, at various glucose concentration.

The conditions of data set [4]: animal efficacy models; PSN-GK1 at higher dose; cited from earlier work.

On to `CC(C)(Oc1ccc2[nH]ccc2c1)C(=O)Nc1ncc(Cl)s1` [Example A17, N-(5-Chloro-thiazol-2-yl)-2-(1H-indol-5-yloxy)-2-methyl-propionamide], for which the “Fold increase in glycogen synthesis at 10 μM Compound” value (shortened to “Fold increase in glycogen synthesis”) in data set [1] (Table 2, 10 mM glucose) came to 2.9 fold.
As to `CC(Oc1ccc(F)cc1F)(C(=O)Nc1nc(CC(=O)O)c(Cl)s1)c1ccc(S(C)(=O)=O)cc1` (stereo not shown) [Example P1, {5-Chloro-2-[2-(2,4-difluoro-phenoxy)-2-(4-methanesulfonyl-phenyl)-propionylamino]-thiazol-4-yl}-acetic acid], the melting point was in the range of 109 to 111 °C. The EC50 in data set [2] worked out at 7 µM.
`CC(Oc1ccc(F)cc1F)(C(=O)Nc1ccc(C(=O)O)cn1)c1ccc(S(=O)(=O)C2CC2)cc1` (stereo not shown) [Example P5, 6-[2-(4-Cyclopropanesulfonyl-phenyl)-2-(2,4-difluoro-phenoxy)-propionylamino]-nicotinic acid]: in data set [1] (Table 2, 10 mM glucose), the “Fold increase in glycogen synthesis” value was 3.2 fold.
Take `CC(Oc1ccc(F)cc1F)(C(=O)Nc1nccs1)c1ccc(S(C)(=O)=O)cc1` (stereo not shown) [Example O1, 2-(2,4-Difluoro-phenoxy)-2-(4-methanesulfonyl-phenyl)-N-thiazol-2-yl-propionamide]: the melting point was 89 to 90 °C.
With `CC(C)(Oc1ccc(F)cc1F)C(=O)Nc1ncc(F)s1` [Example A22, 2-(2,4-Difluoro-phenoxy)-N-(5-fluoro-thiazol-2-yl)-2-methyl-propionamide], the “Fold increase in glycogen synthesis” value in data set [1] (Table 5, 10 mM glucose) was found to be 2.3 fold.
For `CC(C)(Oc1cccc(C(=O)O)c1)C(=O)Nc1nccs1` [Example K1, 3-[1-Methyl-1-(thiazol-2-ylcarbamoyl)-ethoxy]-benzoic acid], the melting point was 166 to 168 °C.
Consider `CC(Oc1ccc(F)cc1F)(C(=O)Nc1ncc(F)s1)c1ccc(S(C)(=O)=O)cc1` (stereo not shown) [Example O9, 2-(2,4-Difluoro-phenoxy)-N-(5-fluoro-thiazol-2-yl)-2-(4-methanesulfonyl-phenyl)-propionamide], for which the “Fold increase in glycogen synthesis” value in data set [1] (Table 5, 10 mM glucose) was 2.8 fold.
In turn, `CCC(C)(Oc1ccc(F)cc1F)C(=O)Nc1nc(CC(=O)O)cs1` (stereo not shown) [Example H1, {2-[2-(2,4-Difluoro-phenoxy)-2-methyl-butyrylamino]-thiazol-4-yl}-acetic acid] yielded a melting point of 148 to 149 °C.
On the same count and under the same terms, under `CSc1ccc(OC(C)(C(=O)Nc2ncc(Cl)s2)c2ccc(S(C)(=O)=O)cc2)cc1` (stereo not shown) [Example O4, N-(5-Chloro-thiazol-2-yl)-2-(4-methanesulfonyl-phenyl)-2-(4-methylsulfanyl-phenoxy)-propionamide] stands 67 to 68 °C.
Turning to `CC(C)(Oc1ccc2c(c1)OCO2)C(=O)Nc1nc(CC(=O)Nc2ccc(F)cc2)cs1` [Example J2, 2-(Benzo[1,3]dioxol-5-yloxy)-N-{4-[(4-fluoro-phenylcarbamoyl)-methyl]-thiazol-2-yl}-2-methyl-propionamide], the “Fold increase in glycogen synthesis” value in data set [1] (Table 5, 10 mM glucose) came to 1.8 fold. Moreover, in data set [3], the Emax was determined as 40%.
Regarding `CS(=O)(=O)c1ccc([C@@H](CC2CCCC2)C(=O)Nc2nccs2)cc1` [Ro-28-1675], the Hypoglycemia result in data set [4] was “cause hypoglycemia in animal efficacy models”.

As usually defined, the EC50 is the concentration that produces a half-maximal response. As usually defined, the melting point is the temperature of the solid-liquid transition. As a reminder, the Emax is the maximal effect, on the per cent scale that the assay sets.
